Drawing on ChEMBL document CHEMBL1139953, “Bis[(para-methoxy)benzyl] phosphonate prodrugs with improved stability and enhanced cell penetration” (Bioorg Med Chem Lett, 2007), this text covers half-life, Activity and Ratio for 16 compounds.

Data set [1] is described as follows: Stability assessed as half life in rat plasma. In kind it is ADME, cell-free.
Another data set concerns Hepatocyte. The data set is described as follows: Drug activation in rat hepatocytes by measuring intracellular NMPA levels at 100 uM after 1 hr. In kind it is cell-based.
A short description of data set [2]: Stability assessed as half life in Krebs bicarbonate buffer at 37degC. In kind it is physicochemical.
The subject of data set [3] is Liver microsomes. The data set is described as follows: Drug activation in NADPH-fortified human liver microsomes assessed as rate of NMPA formation. Set-up: species or system Microsome. (In general: Liver microsomes are vesicles of endoplasmic reticulum, rich in cytochrome P450 enzymes.)
Data set [4] has as its system Liver microsomes. The data set can be described thus: Drug activation in NADPH-fortified rat liver microsomes assessed as rate of NMPA formation. Set-up: species or system Microsome.
Another data set has as its system Nucleic Acid. The data set can be described thus: Ratio of drug activation in NADPH-fortified human liver microsomes to NADPH-fortified rat liver microsomes assessed as rate of NMPA formation. Set-up: species or system Microsome.
The subject of data set [5] is Liver microsomes. The data set can be described thus: Drug activation in human liver microsomes assessed as rate of NMPA formation. Set-up: species or system Microsome.
In another data set the test system is Liver. The data set is described as follows: Drug activation in NADPH-fortified rat liver without microsomes assessed as rate of NMPA formation. Set-up: species or system Microsome.

Take `COc1ccc(COP(=O)(Cc2cccc3ccccc23)OCc2ccc(OC)c(C(F)(F)F)c2)cc1C(F)(F)F`: the half-life (usually how long it takes for the measured level to halve) in data set [1] was greater than 2 h. In the data set with Hepatocyte, this compound came in with an Activity of 46 nmol/g.
`COc1ccc(COP(=O)(Cc2cccc3ccccc23)OCc2ccc(OC)c(C(C)=O)c2)cc1C(C)=O`: the Activity with Hepatocyte is 0 nmol/g.
In the case of `CCOc1ccc(COP(=O)(Cc2cccc3ccccc23)OCc2ccc(OCC)c(Cl)c2)cc1Cl`, the half-life in data set [1] was greater than 2 h. Also, the Activity in the data set on Hepatocyte worked out at 54 nmol/g.
The matching figures for `CC(C)C(=O)OCOP(=O)(Cc1cccc2ccccc12)OCOC(=O)C(C)C`: 0.00833 h and 85 nmol/g.
As to `COc1ccc(COP(=O)(Cc2cccc3ccccc23)OCc2ccc(OC)cc2)cc1`, the half-life in data set [2] and in data set [1] was 0.15 h each time. In the data set on Hepatocyte, the Activity stood at 91 nmol/g.
With `COc1cc(COP(=O)(Cc2cccc3ccccc23)OCc2cc(Br)c(OC)c(Br)c2)cc(OC)c1OC` (stereo not given), the Activity with Hepatocyte is 26 nmol/g.
As for `COc1ccc(COP(=O)(Cc2cccc3ccccc23)OCc2ccc(OC)c(F)c2)cc1F`, the half-life in data set [2] and in data set [1] was greater than 2 h throughout. Besides, the Activity is 125 nmol/g with Hepatocyte, 5.23 pmol/min/mg in the data set on Liver microsomes [3] and 2.94 pmol/min/mg in the data set with Liver microsomes [4]. For the same compound, the Ratio in the data set on Nucleic Acid worked out at 2.
As for `COc1ccc(COP(=O)(Cc2cccc3ccccc23)OCc2ccc(OC)c(C#N)c2)cc1C#N`, the half-life in data set [1] is greater than 2 h. In the data set with Hepatocyte, this compound came in with an Activity of 73 nmol/g.
On to `COc1c(Br)cc(COP(=O)(Cc2cccc3ccccc23)OCc2cc(Br)c(OC)c(Br)c2)cc1Br`, for which, in the data set on Hepatocyte, the Activity amounted to 0 nmol/g.
On the same count and under the same terms, next, `CCOP(=O)(Cc1cccc2ccccc12)OCC`: 0 nmol/g.
Consider `COc1ccc(COP(=O)(Cc2cccc3ccccc23)OCc2ccc(OC)c(Cl)c2)cc1Cl`, for which the half-life in data set [2] and in data set [1] was greater than 2 h each time. In addition, the Activity is on record as 130 nmol/g in the data set with Hepatocyte, 4.52 pmol/min/mg in the data set on Liver microsomes [3] and 1.58 pmol/min/mg in the data set on Liver microsomes [4]. Besides, the Ratio in the data set on Nucleic Acid is reported as 2.
On to `O=P(O)(O)Cc1cccc2ccccc12`, for which the Activity with Hepatocyte turned out to be 0 nmol/g.
Turning to `COc1ccc(COP(=O)(Cc2cccc3ccccc23)OCc2ccc(OC)c([N+](=O)[O-])c2)cc1[N+](=O)[O-]`, the half-life in data set [1] was greater than 2 h. In the data set on Hepatocyte, this compound displayed an Activity of 60 nmol/g.
Turning to `COc1ccc(COP(=O)(Cc2cccc3ccccc23)OCc2ccc(OC)c(Br)c2)cc1Br`, the half-life in data set [2] and in data set [1] was greater than 2 h throughout. In addition, the Activity in the data set with Hepatocyte came out at 76 nmol/g; in the data set with Liver microsomes [3] it was 4.85 pmol/min/mg; with Liver microsomes [5], 0 pmol/min/mg; with Liver microsomes [4], 2.76 pmol/min/mg; in the data set on Liver it was 0 pmol/min/mg. Further, the Ratio with Nucleic Acid is on record as 2.
With `CCCOc1ccc(COP(=O)(Cc2cccc3ccccc23)OCc2ccc(OCCC)c(Cl)c2)cc1Cl`, the Activity in the data set on Hepatocyte turned out to be 0 nmol/g.
Consider `COc1c(Cl)cc(COP(=O)(Cc2cccc3ccccc23)OCc2cc(Cl)c(OC)c(Cl)c2)cc1Cl`, for which the Activity in the data set with Hepatocyte was determined as 0 nmol/g.
